Test results published in patent US6455472B1, “Phenyl-substituted cyclic enaminones” (Bayer Aktiengesellschaft, priority 1998, dated 2002).

System: caterpillars of the army worm (Spodoptera frugiperda)
Assay: Spodoptera frugiperda test
Format: in vivo
Conditions: cabbage leaves (Brassica oleracea) dipped into preparation of active compound; concentration and time not stated
Experimental: Solvent: 7 parts by weight of dimethylformamide
Emulsifier:: 1 part by weight of alkylaryl polyglycol ether
To produce a suitable preparation of active compound, 1 part by weight of active compound is mixed with the stated amounts of solvent and emulsifier, and the concentrate is diluted with water to the desired concentration.
Cabbage leaves (Brassica oleracea) are treated by being dipped into the preparation of active compound of the desired concentration and are populated with caterpillars of the army worm (Spodoptera frugiperda) while the leaves are still moist.
After the desired period of time, the kill in % is determined. 100% means that all caterpillars have been killed; 0% means that none of the caterpillars have been killed.

| SMILES | activity (kill in %) against Spodoptera frugiperda caterpillars |
| --- | --- |
| N#CC(C(=O)c1ccc(Cl)cc1)=C1CCCN1Cc1ccc(Cl)nc1 [Preparation Example 3, 3-(4-chlorophenyl)-2-[1-(6-chloropyridin-3-yl-methyl)-pyrrolidin-2-yli-dene]-3-oxo-propionitrile] | good activity |

System: weeds
Assay: Post emergence test, weeds
Format: in vivo
Conditions: sprayed, assessed after 3 weeks, application rate not stated
Experimental: (§1) Solvent: 5 parts by weight of acetone
(§2) Emulsifier: 1 part by weight of alkylaryl polyglycol ether
(§3) To produce a suitable preparation of active compound, 1 part by weight of active compound is mixed with the stated amount of solvent, the stated amount of emulsifier is added and the concentrate is diluted with water to the desired concentration.
Test plants which have a height of 5 to 15 cm are sprayed with the preparation of active compound such that the particular desired amounts of active compound are applied per unit area. After 3 weeks, the degree of damage to the plants is assessed in % damage in comparison to the development of the untreated controls.

| SMILES | activity against weeds (% damage) |
| --- | --- |
| N#C/C(C(=O)c1ccc(-c2ccc(Cl)cc2)cc1)=C1\CCCCN1 [I-1-a-54, 3-(4′-chloro-biphenyl-4-yl)-3-oxo-2-piperidin-2-ylidene-propionitrile] | strong activity |

System: weeds
Assay: Pre-emergence test, weeds
Format: in vivo
Conditions: soil watered 24 hours after sowing, assessed after three weeks, application rate not stated
Experimental: as §1, §2, §3
Seeds of the test plants are sown in normal soil and, after 24 hours, watered with the preparation of active compound. The amount of water per unit area is advantageously kept constant. The concentration of active compound in the preparation is immaterial, only the active compound application rate per unit area matters. After three weeks, the degree of damage to the plants is assessed in % damage in comparison with the development of the untreated control.

| SMILES | activity against weeds (% damage) |
| --- | --- |
| N#C/C(C(=O)c1ccc(-c2ccc(Cl)cc2)cc1)=C1\CCCCN1 [I-1-a-54, 3-(4′-chloro-biphenyl-4-yl)-3-oxo-2-piperidin-2-ylidene-propionitrile] | strong activity |

System: not given
Assay: not given
Conditions: not given

| SMILES | melting point [°C] |
| --- | --- |
| COC(=O)CSc1ccc(C(=O)/C(C#N)=C2/CCCCN2)cn1 [I-2-a-6] | 146 |
| N#C/C(C(=O)c1ccc(NS(=O)(=O)C(F)(F)F)cc1)=C1\CCCCN1 [I-1-a-138, 3-[4-(trifluoromethanesulphonylamino)-phenyl]-3-oxo-2-piperidin-2-ylidene-propionitrile] | 197 |
| CCOC(=O)C1CC/C(=C(\C#N)C(=O)c2ccccc2Cl)N1 (stereo not drawn) [I-1-d-4] | 222 to 224 |
| N#C/C(C(=O)c1ccc(SCC(=O)O)nc1)=C1\CCCCN1 [I-2-a-7] | 155 |

Results, then the compound that gave them:

| melting point [°C] | SMILES |
| --- | --- |
| 137 | N#C/C(C(=S)c1ccc(Cl)cc1)=C1\CCCCN1 [I-1-a-151, 3-(4-chloro-phenyl)-3-thio-2-piperidin-2-ylidene-propionitrile] |
| 134 to 136 | N#C/C(C(=O)c1ccc(Cl)cc1)=C1\CCC(C(=O)O)N1 (centres unmarked) [Example 8, 5-[2-(4-chloro-phenyl)-1-cyano-2-oxo-ethylidene]-pyrrolidine-2-carboxylic acid] |
| 134 | N#C/C(C(=O)c1ccc(-c2ccc(Cl)cc2)cc1)=C1\CCCCN1 [I-1-a-54, 3-(4′-chloro-biphenyl-4-yl)-3-oxo-2-piperidin-2-ylidene-propionitrile] |
| 115 | CN1CCC/C1=C(\C#N)C(=O)c1ccc(Cl)cc1 [I-1-a-110, 3-(4-chloro-phenyl)-3-oxo-2-(1-methyl-pyrrolidin-2-ylidene)-propionitrile] |
| 156 to 158 | N#C/C(C(=O)c1ccc(Cl)cc1)=C1\CCCN1 [Example 1, 3-(4-chlorophenyl)-3-oxo-2-pyrrolidin-2-ylidene-propionitrile] |
| 108 to 110 | CCOC(=O)C1CC/C(=C(\C#N)C(=O)c2ccc(Cl)cc2)N1 (centres unmarked) [Example 7, ethyl 5-[2-(4-chloro-phenyl)-1-cyano-2-oxo-ethylidene]-pyrrolidine-2-carboxylate] |
| 218 | N#C/C(C(=O)c1ccc(Cl)cc1)=C1\CCCN1C(=O)c1ccc(Cl)cc1 [Example 5, 2-[1-(4-chlorobenzoyl)pyrrolidin-2-ylidene]-3-(4-chlorophenyl)-3-oxo-propionitrile] |
